Source: patent US20250241892A1, “5-METHOXY-N,N-[…][…] THE TREATMENT OF PSYCHOMOTOR RETARDATION” (GH RESEARCH IRELAND LIMITED, priority 2022, published 2025)

Tested on: patients with postpartum depression (PPD)
Experiment: Clinical trial of inhaled 5-MeO-DMT in postpartum depression
Conditions: 1 patient
Description: The single-arm, open-label clinical trial will involve 15 adult female patients with clinically diagnosed postpartum depression (PPD).
The second dose (12 mg) will only be administered if: • a. A peak experience (total score of ⋅75) has not been achieved following the 6 mg dose, and • b. The 6 mg dose was safe and well-tolerated according to the investigator, • c. Any psychoactive effects (PsE) of the prior dose have subsided, and • d. Pre-dose vital parameters and forced expiratory volume in one second (FEV1) are in normal range, or if outside of the normal range, are not clinically significant according to the investigator. • 3. Similarly, a third dose (18 mg) will only be administered if: • a. A peak experience (total score of ⋅75) has not been achieved following the 12 mg dose, and • b. The 12 mg dose was safe and well-tolerated according to the investigator, and • c. Any PsE of the prior dose have subsided, and • d. Pre-dose vital parameters and forced expiratory volume in one second (FEV1) are in normal range, or if outside of the normal range, are not clinically significant according to the investigator.
The patients will be assessed for a peak psychedelic experience (based on a patient-scored visual analogue scale, the PE scale), sedation, and other endpoints after dosing. Follow-up visits are planned for Day 1, and Day 7 after the dosing day.
The following criteria must be met by all patients considered for clinical trial participation: • 1. Is female and in the age range between 18 and 45 years (inclusive) at screening. • 2. Has a body mass index (BMI) in the range of 18.5 and 35 kg/m^2 (inclusive) at screening. • 3. Meets the trial criteria for PPD as assessed by a trial psychiatrist or registered psychologist: • a. Diagnosis of Major Depressive Disorder without psychotic features, confirmed by the Mini-International Neuropsychiatric Interview (MINI), with peri-partum onset that began no earlier than gestation and no later than the first 4 weeks postpartum. • b. Has a Montgomery-Åsberg Depression Rating Scale (MADRS) total score of equal to or greater than 28 at screening and pre-dose on Day 0. • 6. […] Patients must have a negative pregnancy test at screening and on the pre-test day (Day −1). • 5. Is willing to delay start of other antidepressant or anxiety medication until after the end of the trial at Day 7 and agrees to keep any psychotherapy unchanged during the trial.
A potential patient who meets any of the following key exclusion criteria will be excluded from participation in this trial: • 1. Has, based on history, psychiatric assessment, and evaluation of the MINI, a current or prior diagnosis of bipolar disorder, a manic or hypomanic episode, a psychotic disorder, Major Depressive Disorder (MDD) or other mood disorder with psychotic features, obsessive compulsive disorder, post-traumatic stress disorder (PTSD), autism spectrum disorder, borderline personality disorder, schizophrenia, delusional disorder, paranoid personality disorder, schizoaffective disorder, clinically significant intellectual disability, or any other psychiatric comorbidity that renders the patient unsuitable for the trial according to the investigator's judgment. • 2. Has one or more first or second degree relatives with a current or previously diagnosed bipolar disorder, psychotic disorder or other mood disorder (including MDD) with psychotic features. • 3. Is in the judgement of a trial psychiatrist or registered psychologist, at significant risk for suicide based on history, psychiatric assessment, and evaluation of suicidal ideation and suicidal behaviour based on the Columbia-Suicide Severity Rating Scale (C-SSRS). • 4. Has taken anti-depressive medication within 14 days or 5 half-lives (whichever is longer) prior to dosing (exception: within the last 5 weeks in the case of fluoxetine). • 5.

COc1ccc2[nH]cc(CCN(C)C)c2c1 [5-MeO-DMT]
ECG (3 hours), safety laboratory analyses (7 days), CADSS (3 hours, 1 day, 7 days): unremarkable
Reported adverse events (cramping left abdominal pain and headache, Day 0): mild, short-lasting and resolved spontaneously
Standard criteria for MADRS remission (MADRS total score equal or less than 10): fulfilled
Standard criteria for MADRS response (at least 50% improvement from baseline): fulfilled
Tolerability of the inhalation procedure: well tolerated with no inhalation-related adverse events
MADRS Apparent sadness improvement (2 hr vs baseline): 5
MADRS Concentration Difficulties improvement (2 hr vs baseline): 0
MADRS Inability to Feel improvement (2 hr vs baseline): 3
MADRS Inner Tension improvement (2 hr vs baseline): 5
MADRS Lassitude improvement (2 hr vs baseline): 3
MADRS Pessimistic Thoughts improvement (2 hr vs baseline): 4
MADRS Reduced Sleep improvement (2 hr vs baseline): 0
MADRS Reduced appetite improvement (2 hr vs baseline): 0
MADRS Reported sadness improvement (2 hr vs baseline): 4
MADRS Suicidal Thoughts improvement (2 hr vs baseline): 0
MADRS Concentration Difficulties score (2 hr, baseline 0): 0
MADRS Reduced appetite score (2 hr, baseline 0): 0
MADRS Suicidal Thoughts score (2 hr, baseline 0): 0
MADRS Inability to Feel score (2 hr, baseline 3): 0
MADRS Lassitude score (2 hr, baseline 3): 0
MADRS Pessimistic Thoughts score (2 hr, baseline 4): 0
MADRS Reported sadness score (2 hr, baseline 4): 0
MADRS Apparent sadness score (2 hr, baseline 5): 0
MADRS Inner Tension score (2 hr, baseline 5): 0
MADRS Reduced Sleep score (2 hr, baseline 5): 5
MADRS Concentration Difficulties score (Day 1, baseline 0): 0
MADRS Reduced appetite score (Day 1, baseline 0): 0
MADRS Suicidal Thoughts score (Day 1, baseline 0): 0
BPRS Blunted affect score (Day 1, baseline 1): 1
BPRS Conceptual disorganization score (Day 1, baseline 1): 1
BPRS Disorientation score (Day 1, baseline 1): 1
BPRS Grandiosity score (Day 1, baseline 1): 1
BPRS Hallucinatory behaviour score (Day 1, baseline 1): 1
BPRS Hostility score (Day 1, baseline 1): 1
BPRS Mannerisms and Posturing score (Day 1, baseline 1): 1
BPRS Motor retardation score (Day 1, baseline 1): 1
BPRS Suspiciousness score (Day 1, baseline 1): 1
BPRS Uncooperativeness score (Day 1, baseline 1): 1
BPRS Unusual Thought Content score (Day 1, baseline 1): 1
BPRS Excitement score (Day 1, baseline 2): 1
MADRS Inability to Feel score (Day 1, baseline 3): 0
MADRS Lassitude score (Day 1, baseline 3): 0
MADRS Pessimistic Thoughts score (Day 1, baseline 4): 0
MADRS Reported sadness score (Day 1, baseline 4): 0
BPRS Emotional withdrawal score (Day 1, baseline 5): 1
MADRS Apparent sadness score (Day 1, baseline 5): 0
MADRS Inner Tension score (Day 1, baseline 5): 0
MADRS Reduced Sleep score (Day 1, baseline 5): 0
BPRS Depressive Mood score (Day 1, baseline 6): 1
BPRS Guilt feelings score (Day 1, baseline 6): 1
BPRS Somatic Concern score (Day 1, baseline 6): 1
BPRS Tension score (Day 1, baseline 6): 1
BPRS Anxiety score (Day 1, baseline 7): 1
BPRS Anxiety improvement (Day 1 vs baseline): 6
BPRS Blunted affect improvement (Day 1 vs baseline): 0
BPRS Conceptual disorganization improvement (Day 1 vs baseline): 0
BPRS Depressive Mood improvement (Day 1 vs baseline): 5
BPRS Disorientation improvement (Day 1 vs baseline): 0
BPRS Emotional withdrawal improvement (Day 1 vs baseline): 4
BPRS Excitement improvement (Day 1 vs baseline): 1
BPRS Grandiosity improvement (Day 1 vs baseline): 0
BPRS Guilt feelings improvement (Day 1 vs baseline): 5
BPRS Hallucinatory behaviour improvement (Day 1 vs baseline): 0
BPRS Hostility improvement (Day 1 vs baseline): 0
BPRS Mannerisms and Posturing improvement (Day 1 vs baseline): 0
BPRS Motor retardation improvement (Day 1 vs baseline): 0
BPRS Somatic Concern improvement (Day 1 vs baseline): 5
BPRS Suspiciousness improvement (Day 1 vs baseline): 0
BPRS Tension improvement (Day 1 vs baseline): 5
BPRS Uncooperativeness improvement (Day 1 vs baseline): 0
BPRS Unusual Thought Content improvement (Day 1 vs baseline): 0
MADRS Apparent sadness improvement (Day 1 vs baseline): 5
MADRS Concentration Difficulties improvement (Day 1 vs baseline): 0
MADRS Inability to Feel improvement (Day 1 vs baseline): 3
MADRS Inner Tension improvement (Day 1 vs baseline): 5
MADRS Lassitude improvement (Day 1 vs baseline): 3
MADRS Pessimistic Thoughts improvement (Day 1 vs baseline): 4
MADRS Reduced Sleep improvement (Day 1 vs baseline): 5
MADRS Reduced appetite improvement (Day 1 vs baseline): 0
MADRS Reported sadness improvement (Day 1 vs baseline): 4
MADRS Suicidal Thoughts improvement (Day 1 vs baseline): 0
BIMF item 2 (I feel rested) score (Day 7, Day 0 score 0): 2
BIMF item 19 (getting better at taking care of my baby) score (Day 7, Day 0 score 0): 1
BIMF item 18 (Anxiety or worry often interferes with my mothering ability) score (Day 7, Day 0 score 2): 5
BIMF item 16 (I worry about how other people judge me) score (Day 7, Day 0 score 3): 5
BIMF item 13 (taking good care of my physical needs) score (Day 7, Day 0 score 4): 5
BIMF item 4 (My baby and I understand each other) score (Day 7, Day 0 score 5): 5
BIMF item 5 (able to relax and enjoy time with my baby) score (Day 7, Day 0 score 5): 6
BIMF item 9 (getting enough encouragement from other people) score (Day 7, Day 0 score 5): 6
BIMF item 10 (I trust my own feelings (instincts)) score (Day 7, Day 0 score 5): 6
BIMF item 11 (a little time each week to do something for myself) score (Day 7, Day 0 score 5): 6
BIMF item 15 (My baby and I are getting into a routine) score (Day 7, Day 0 score 5): 6
BIMF item 17 (able to take care of my baby and my other responsibilities) score (Day 7, Day 0 score 5): 5
BIMF item 1 (I am a good mother) score (Day 7, Day 0 score 6): 6
BIMF item 3 (comfortable with the way I've chosen to feed my baby) score (Day 7, Day 0 score 6): 6
BIMF item 6 (people in my life that I can trust to care for my baby) score (Day 7, Day 0 score 6): 6
BIMF item 8 (getting enough adult interaction) score (Day 7, Day 0 score 6): 6
BIMF item 12 (taking good care of my baby's physical needs) score (Day 7, Day 0 score 6): 6
BIMF item 14 (good decisions about my baby's health and well being) score (Day 7, Day 0 score 6): 6
BIMF item 20 (satisfied with the job I am doing as a new mother) score (Day 7, Day 0 score 6): 5
MADRS Concentration Difficulties score (Day 7, baseline 0): 0
MADRS Reduced appetite score (Day 7, baseline 0): 0
MADRS Suicidal Thoughts score (Day 7, baseline 0): 0
BPRS Blunted affect score (Day 7, baseline 1): 1
BPRS Conceptual disorganization score (Day 7, baseline 1): 1
BPRS Disorientation score (Day 7, baseline 1): 1
BPRS Grandiosity score (Day 7, baseline 1): 1
BPRS Hallucinatory behaviour score (Day 7, baseline 1): 1
BPRS Hostility score (Day 7, baseline 1): 1
